Experimental data published in PMC10144566, “Pharmacokinetic Profile Evaluation of Novel Combretastatin Derivative, LASSBio-1920, as a Promising Colorectal Anticancer Agent” (Pharmaceutics, 2023).
Like-named read-outs stand apart in the source and are kept apart here.

What was measured:
[1] = PAMPA-BBB permeability; assay type: in vitro ADME; settings: for Papp: PAMPA; for Pe1 (Experimental): replicate 1; for Pe2 (Experimental): replicate 2
Experimental: (§1) For this, two 96-well plates were placed one above the other, and between them, an artificial hydrophobic polyvinylidene fluoride (PVDF) membrane, which was impregnated with a lipid solution. The top plate works as the donor compartment and the bottom one as the receiver compartment.
Parallel artificial membrane permeation assay for the blood–brain barrier (PAMPA-BBB): It was performed according to the previously reported [26] method established by Lu and coworkers [27].

[2] = tested on: H-1975, non-small cell lung adenocarcinoma; assay: MTT cytotoxicity assay, H-1975; settings: Homo sapiens, NCI-H1975, 72 h, read-out: IC50 (95% CI) H-1975
Experimental: (§2) The cytotoxicity of the compounds was determined using the MTT assay [13]. Cells were seeded in 96-well plates as follows: 0.7 × 10^5 cells/well for adherent cancer cells, 0.3 × 10^5 cells/well for suspended cancer cells, and 0.2 × 10^5 cells/well for HPBMCs. […] The control group was treated with the vehicle. […] After incubation, the supernatant was decanted and replaced with fresh medium containing MTT (0.5 mg/mL).

[3] = tested on: N-87, gastric carcinoma; assay: MTT cytotoxicity assay, N-87; settings: Homo sapiens, 72 h, read-out: IC50 (95% CI) N-87
Experimental: as §2

[4] = tested on: PC-9, lung adenocarcinoma (overexpressed EGFR with L858R mutation); assay: MTT cytotoxicity assay, PC-9; settings: for SI HPBMC/PC-9: IC50 for HPBMC/IC50 for the tumor cell line
Experimental: as §2

[5] = tested on: HCT-116 human colorectal cancer cells (colon carcinoma); assay: MTT cytotoxicity assay, HCT-116; settings: for IC50: Homo sapiens; for SI HPBMC/HCT-116: IC50 for HPBMC/IC50 for the tumor cell line, 72 h
Experimental: as §2

[6] = tested on: MDA-MB435; set-up: method as in PMID 16722619, PMID 21488686; settings: lowest IC50 value among cancer cell lines; cited from earlier work
[7] = tested on: PC-3, prostate adenocarcinoma; assay: MTT cytotoxicity assay, PC-3; settings: Homo sapiens, 72 h, read-out: IC50 (95% CI) PC-3
Experimental: as §2

[8] = tested on: HPBMC, human peripheral blood mononuclear cells; assay: MTT cytotoxicity assay, HPBMC; assay type: cell-based; settings: PBMC, 72 h incubation, read-out: IC50 (95% CI) HPBMC
Experimental: Heparinized blood was collected from healthy, non-smoking donors who had not taken any drugs during the 15 days prior to sampling. Human peripheral blood mononuclear cells (HPBMC) were isolated by a standard density-gradient centrifugation method over Ficoll-Hypaque® media (Merck-Sigma-Aldrich, St. Louis, MO, USA). HPBMC were washed and resuspended in RPMI-1640 medium supplemented with 20% fetal bovine serum, 2 mM glutamine, 100 U/mL penicillin, and 100 µg/mL streptomycin at 37 °C with 5% CO2. Phytohemagglutinin (3%) was added at the beginning of the culture.
The cytotoxicity of the compounds was determined using the MTT assay. Cells were seeded in 96-well plates as follows: 0.7 × 10^5 cells/well for adherent cancer cells, 0.3 × 10^5 cells/well for suspended cancer cells, and 0.2 × 10^5 cells/well for HPBMCs. The treatments were dissolved in DMSO and added to each well using an automated liquid handler for high-throughput screening (Biomek 3000—Beckman Coulter, Inc., Fullerton, CA, USA) and incubated for either 24, 48, and 72 h. The control group was treated with the vehicle. […] After incubation, the supernatant was decanted and replaced with fresh medium containing MTT (0.5 mg/mL). Three hours later, the MTT’s formazan product was dissolved in 150 µL of pure DMSO, and absorbance was measured at 595 nm (DTX 880 Multimode Detector, Beckman Coulter, Inc., Pasadena, CA, USA).
Data were presented as mean ± standard error of the mean (SEM) from three independent experiments performed in triplicate, calculated using Prism 8.0 (GraphPad/Intuitive Software for Science, San Diego, CA, USA). The IC50 of the compounds was obtained using a non-linear regression of the cytotoxicity curves.

[9] = tested on: SF-295, glioblastoma; assay: MTT cytotoxicity assay, SF-295; settings: Homo sapiens, SF-295, 72 h, read-out: IC50 (95% CI) SF-295
Experimental: as §2

[10] = set-up: method as in Literature (reference not given); settings: absorbed fraction of PAMPA-GIT controls; ref Literature (reference not given); cited from earlier work
[11] = PAMPA-GIT permeability; assay type: in vitro ADME; settings: for Fa%: PAMPA-GIT predicted absorbed fraction, 0–30% low, 30–69% medium, 70–100% high absorption; for Papp at 5 h, 0.5 mM: PAMPA-GIT, room temperature, read-out: Pe (Experimental)
Description: as §1
Parallel artificial membrane permeation assay for gastrointestinal tract (GIT-PAMPA): 1% (w/v) phosphatidylcholine was mixed with dodecane as a lipid solution to impregnate the PVDF membrane between the donor and receiver plates to stimulate intestinal permeability. […] A total of 180 µL of the mixture of PBS and DMSO (v/v 95:5) was added to the recipient plate, and 180 µL of the test solution was added to the donor plate. Immediately and carefully, the donor plate was placed above the receiver plate and incubated for 5 h at room temperature. The solution captured on the receptor plate was removed and subsequently analyzed by a UV detector (SpectraMax 5®—Molecular Devices, Sao Jose, CA, USA). The experiments were performed in quadruplicate.

[12] = tested on: MCF-7; set-up: method as in PMID 23459143; settings: 24 h incubation; cited from earlier work
[13] = tested on: MDA -MB231; set-up: method as in PMID 23459143; settings: 24 h incubation; cited from earlier work
[14] = HCT-116, 72 h, read-out: IC50 (95% CI) HCT-116
[15] = Homo sapiens, 72 h, read-out: IC50 (95% CI) PC-9

SMILES: CCn1cc(C(=O)O)c(=O)c2cc(F)c(N3CCNCC3)nc21 [Enoxacin]
- Papp ([1]; PAMPA-BBB classification: absorbed by the Central Nervous System, read-out: CNS Permeability): < 1.13 ×10⁻⁶ cm/s
- Papp ([1]; PAMPA-BBB, mean, read-out: Pe (Experimental Mean)): 0.3 ×10⁻⁶ cm/s
- Pe1 (Experimental) ([1]; PAMPA-BBB): 0.48 10–6 cm/s
- Pe2 (Experimental) ([1]; PAMPA-BBB): 0.06 10–6 cm/s

SMILES: CCOc1cc2ncc(C#N)c(Nc3ccc(F)c(Cl)c3)c2cc1NC(=O)/C=C/CN(C)C [PELITINIB, Pelitinib]
- IC50 [2]: 4400 nM
- IC50 [3]: 330 nM
- IC50 ([4]; read-out: IC50 (95% CI) PC-9, 72 h incubation, MTT): 530 nM

SMILES: COc1cc(C(=O)NN=Cc2ccccc2)cc(OC)c1OC [LASSBio-1586]
- IC50 [2]: 2830 nM
- IC50 [5, 14]: 320 nM
- SI HPBMC/HCT-116 [5]: 4.2
- IC50 [6]: 64 nM
- IC50 [7]: 920 nM
- IC50 [8]: 1340 nM
- IC50 [9]: 260 nM
- IC50 [3]: 820 nM
- IC50 [4, 15]: 750 nM
- SI HPBMC/PC-9 ([4]; 72 h): 1.8

SMILES: Cn1c(=O)c2c(ncn2C)n(C)c1=O [Caffeine]
- Pe1 (Experimental) ([1]; PAMPA-BBB): 0.36 10–6 cm/s
- Pe2 (Experimental) ([1]; PAMPA-BBB): −0.10 10–6 cm/s

SMILES: O=C(O)Cc1ccccc1Nc1c(Cl)cccc1Cl [Diclofenac]
- Fa (Literature) [10]: 100
- Fa% [11]: 100.0%

SMILES: CCN(CC)CCNC(=O)c1c(C)[nH]c(/C=C2\C(=O)Nc3ccc(F)cc32)c1C [SUNITINIB, Sunitinib]
- IC50 [2]: 4480 nM
- IC50 [3]: 10900 nM

SMILES: COc1ccc(/C=C\c2cc(OC)c(OC)c(OC)c2)cc1O [CA4, Combretastatin A-4]
- IC50 [2]: 35 nM
- IC50 ([5]; HCT-116, 48 h, read-out: IC50 (95% CI) HCT-116 48 h): 200 nM
- IC50 [5, 14]: 2.1 nM
- IC50 ([5]; HCT-116, 72 h, read-out: IC50 (95% CI) HCT-116 72 h): 2.1 nM
- SI HPBMC/HCT-116 [5]: 2.24
- IC50 [12]: 10 nM
- IC50 [13]: 110 nM
- IC50 [7]: 8 nM
- IC50 [8]: 4.7 nM
- IC50 [9]: 8 nM
- IC50 [3]: 3340 nM
- IC50 ([4]; Homo sapiens, 24 h, read-out: IC50 (95% CI) PC-9 24 h): 2600 nM
- IC50 ([4]; Homo sapiens, 48 h, read-out: IC50 (95% CI) PC-9 48 h): 1380 nM
- IC50 [4, 15]: 110 nM
- IC50 ([4]; Homo sapiens, 72 h, read-out: IC50 (95% CI) PC-9 72 h): 110 nM
- SI HPBMC/PC-9 ([4]; 72 h): 0.043

SMILES: CCn1cc(C(=O)O)c(=O)c2cc(F)c(N3CCNCC3)cc21 [Norfloxacin]
- Fa% [11]: 51.39%

SMILES: CNC(=C[N+](=O)[O-])NCCSCc1ccc(CN(C)C)o1 [Ranitidine]
- Fa% [11]: 16.50%
- Papp at 5 h, 0.5 mM [11]: 0.2 ×10⁻⁶ cm/s

SMILES: CO/N=C(\C(=O)N[C@@H]1C(=O)N2C(C(=O)O)=C(CSc3nc(=O)c(=O)[nH]n3C)CS[C@H]12)c1csc(N)n1 [Ceftriaxone]
- Fa (Literature) [10]: 1

SMILES: O=c1ccc2ccccc2o1 [Coumarin]
- Papp at 5 h, 0.5 mM [11]: 26 ×10⁻⁶ cm/s
